What follows are compounds tested against TrkA kinase (Homo sapiens, UniProt P04629) (assay: TrkA kinase assay (mobility shift assay)). Settings: class symbols; read-out: Trk A Kinase IC50.
Chain of TrkA kinase (P04629 33-796): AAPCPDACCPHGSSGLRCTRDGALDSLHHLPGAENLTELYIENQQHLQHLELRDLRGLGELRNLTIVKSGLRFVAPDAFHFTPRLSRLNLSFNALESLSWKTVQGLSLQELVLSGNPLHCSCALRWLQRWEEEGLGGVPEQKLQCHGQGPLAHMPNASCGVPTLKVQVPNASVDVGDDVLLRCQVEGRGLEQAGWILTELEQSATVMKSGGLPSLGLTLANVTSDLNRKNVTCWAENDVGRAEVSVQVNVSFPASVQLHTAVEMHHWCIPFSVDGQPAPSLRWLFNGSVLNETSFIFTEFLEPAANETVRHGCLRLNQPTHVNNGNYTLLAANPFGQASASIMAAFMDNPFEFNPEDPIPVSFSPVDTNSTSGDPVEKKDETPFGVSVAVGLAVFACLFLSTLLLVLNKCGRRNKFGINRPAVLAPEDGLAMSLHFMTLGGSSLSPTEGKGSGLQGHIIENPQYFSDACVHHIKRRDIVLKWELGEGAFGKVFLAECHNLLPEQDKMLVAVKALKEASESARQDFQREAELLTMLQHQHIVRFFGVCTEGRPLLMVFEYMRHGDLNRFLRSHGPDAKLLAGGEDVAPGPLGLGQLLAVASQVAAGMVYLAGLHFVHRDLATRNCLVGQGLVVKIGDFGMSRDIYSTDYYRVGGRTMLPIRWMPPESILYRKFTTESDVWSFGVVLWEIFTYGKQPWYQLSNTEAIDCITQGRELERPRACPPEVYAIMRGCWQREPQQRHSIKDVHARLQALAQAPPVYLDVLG
Format: biochemical
In short: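 Ten-point compound series was preincubated 10 min at room temperature with TrkA, then FAM-peptide plus ATP added in HEPES pH 7.5/Brij-35 buffer and reacted at 28 °C before EDTA quench.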
With `N#Cc1cc2nc(-c3cnn4ccc(N5CCC[C@@H]5c5cc(F)ccc5F)nc34)[nH]c2cc1Br` [Compound 151, (R)-6-bromo-2-(5-(2-(2,5-difluorophenyl)pyrrolidin-1-yl)pyrazolo[1,5-a]pyrimidin-3-yl)-1H-benzo[d]imidazole-5-carbonitrile] the IC50 was ≤ 10 nM. `COC(=O)c1cc2[nH]c(-c3cnn4ccc(N5CCC[C@@H]5c5cc(F)ccc5F)nc34)nc2cc1C#N` [Compound 152, methyl (R)-5-cyano-2-(5-(2-(2,5-difluorophenyl)pyrrolidin-1-yl)pyrazolo[1,5-a]pyrimidin-3-yl)-1H-benzo[d]imidazole-6-carboxylate] was tested, and the IC50 was ≤ 10 nM. With `N#Cc1cc2nc(-c3cnn4ccc(N5CCC[C@@H]5c5cc(F)ccc5F)nc34)[nH]c2cc1C(=O)O` [Compound 153, (R)-5-cyano-2-(5-(2-(2,5-difluorophenyl)pyrrolidin-1-yl)pyrazolo[1,5-a]pyrimidin-3-yl)-1H-benzo[d]imidazole-6-carboxylic acid] the IC50 was ≤ 10 nM. For `N#Cc1cc2nc(-c3cnn4ccc(N5CCC[C@@H]5c5cc(F)ccc5F)nc34)[nH]c2cc1C(N)=O` [Compound 154, (R)-5-cyano-2-(5-(2-(2,5-difluorophenyl)pyrrolidin-1-yl)pyrazolo[1,5-a]pyrimidin-3-yl)-1H-benzo[d]imidazole-6-carboxamide], the IC50 was ≤ 10 nM. For `COC(=O)c1c(F)ccc2nc(-c3cnn4ccc(N5CCC[C@@H]5c5cc(F)ccc5F)nc34)[nH]c12` [Compound 158, methyl (R)-2-(5-(2-(2,5-difluorophenyl)pyrrolidin-1-yl)pyrazolo[1,5-a]pyrimidin-3-yl)-6-fluoro-1H-benzo[d]imidazole-7-carboxylate], the IC50 was ≤ 10 nM. In the case of `Cc1cc2[nH]c(-c3cnn4ccc(N5CCC[C@@H]5c5cc(F)ccc5F)nc34)nc2cc1C#N` [Compound 159, (R)-2-(5-(2-(2,5-difluorophenyl)pyrrolidin-1-yl)pyrazolo[1,5-a]pyrimidin-3-yl)-6-methyl-1H-benzo[d]imidazole-5-carbonitrile], the IC50 is reported as ≤ 10 nM. `CN1CCN(c2cc3[nH]c(-c4cnn5ccc(N6CCC[C@@H]6c6cc(F)ccc6F)nc45)nc3cc2C#N)CC1` [Compound 163, (R)-2-(5-(2-(2,5-difluorophenyl)pyrrolidin-1-yl)pyrazolo[1,5-a]pyrimidin-3-yl)-6-(4-methylpiperazin-1-yl)-1H-benzo[d]imidazole-5-carbonitrile] was tested, and the IC50 was ≤ 10 nM. For `N#Cc1cc2nc(-c3cnn4ccc(N5CCC[C@@H]5c5cc(F)ccc5F)nc34)[nH]c2cc1N1CC[C@H](O)C1` [Compound 164, 2-(5-((R)-2-(2,5-difluorophenyl)pyrrolidin-1-yl)pyrazolo[1,5-a]pyrimidin-3-yl)-6-((S)-3-hydroxypyrrolidin-1-yl)-1H-benzo[d]imidazole-5-carbonitrile], the IC50 was ≤ 10 nM. In the case of `N#Cc1cc2nc(-c3cnn4ccc(N5CCC[C@@H]5c5cc(F)ccc5F)nc34)[nH]c2cc1N1CCC[C@H]1C#N` [Compound 165, 6-((S)-2-cyanopyrrolidin-1-yl)-2-(5-((R)-2-(2,5-difluorophenyl)pyrrolidin-1-yl)pyrazolo[1,5-a]pyrimidin-3-yl)-1H-benzo[d]imidazole-5-carbonitrile], the IC50 is reported as ≤ 10 nM.

Same assay, conditions: numeric values; read-out: Trk A Kinase IC50
`N#Cc1cc2[nH]c(-c3cnn4ccc(N5CCC[C@@H]5c5cc(F)ccc5F)nc34)nc2cc1C(F)(F)F` [Compound 157, (R)-2-(5-(2-(2,5-difluorophenyl)pyrrolidin-1-yl)pyrazolo[1,5-a]pyrimidin-3-yl)-5-(trifluoromethyl)-1H-benzo[d]imidazole-6-carbonitrile] gave an IC50 of 27 nM. In the case of `COc1cc2[nH]c(-c3cnn4ccc(N5CCC[C@@H]5c5cc(F)ccc5F)nc34)nc2cc1C(=O)N(C)C` [Compound 161, (R)-2-(5-(2-(2,5-difluorophenyl)pyrrolidin-1-yl)pyrazolo[1,5-a]pyrimidin-3-yl)-6-methoxy-N,N-dimethyl-1H-benzo[d]imidazole-5-carboxamide], the IC50 is reported as 0.9 nM.

Reference: patent US20210395256A1, “TYROSINE KINASE INHIBITORS, COMPOSITIONS AND METHODS THERE OF” (Betta Pharmaceuticals Co., Ltd., priority 2018, published 2021)
